Data on one substance can be found in patent publication US20100062986A1, “METHOD TO TREAT BLOOD CELL DEPLETION” (ImmuneRegen Biosciences, Inc., priority 2006, published 2010).

In the assay the test system is mice exposed to a lethal dose of 60Co radiation. In words: Radilex treatment of mice after lethal 60Co radiation exposure (survival, blood counts). It is filed as in vivo, mice (C57BL/6J). The source says:
One purpose of the study is to determine the effects of Radilex™ ([Sar^9, Met(02)^11]-Substance P) after exposure to a lethal dose of ^60Co radiation exposure. Another purpose of the study is to determine if intra-muscular injections of Radilex™ can be as effective as aerosol inhalation of Radilex™ at 8Gy ^60Co radiation level.
Blood draws (2 animals per group rotating every 5 days) for erythrocytes, leukocytes and platelets were taken to assess anemia, neutropenia and thrombocytopenia. Counts of erythrocytes, leukocytes and platelets were taken to assess anemia, neutropenia and thrombocytopenia and act as indicators of bone marrow damage and/or immune system destruction.
The mice received Radilex™ treatment within 2 hours of radiation exposure. The Radilex™ dosage was administered in a volume of 0.01 ml in a daily single treatment via IM injection into the hind limb muscle a single time, for the duration of the study (30 days), or until death.
The following regimens were tested on groups of 9-11 mice:
10 mM Radilex™ single intramuscular treatment
1 mM Radilex™ single intramuscular treatment
1 mM Radilex™ daily intramuscular treatment
75 uM Radilex™ single intramuscular treatment
75 uM Radilex™ daily intramuscular treatment
10 uM Radilex™ daily via nebulizer
50 uM Radilex™ daily via nebulizer
75 uM Radilex™ daily via nebulizer
100 uM Radilex™ daily via nebulizer […]

Take “[Sar^9, Met(02)^11]-Substance P [Radilex™]”: the “Radioprotection: effects of lethal exposure” value (mice, lethal 60Co radiation, Radilex intramuscular or via nebulizer, first treatment within 2 hours of exposure) is “Reversed”. The Neutropenia and anemia entry (surviving animals after 60Co radiation, white cell count and hematocrit) was “Reversed”.
